Test results as given in the Kinase Knowledgebase extract (Sharma et al. 2016).

target: EGFR (murine) (UniProt P00533); conditions: nih3t3/c7
Sequence (P00533 whole entry, looked up): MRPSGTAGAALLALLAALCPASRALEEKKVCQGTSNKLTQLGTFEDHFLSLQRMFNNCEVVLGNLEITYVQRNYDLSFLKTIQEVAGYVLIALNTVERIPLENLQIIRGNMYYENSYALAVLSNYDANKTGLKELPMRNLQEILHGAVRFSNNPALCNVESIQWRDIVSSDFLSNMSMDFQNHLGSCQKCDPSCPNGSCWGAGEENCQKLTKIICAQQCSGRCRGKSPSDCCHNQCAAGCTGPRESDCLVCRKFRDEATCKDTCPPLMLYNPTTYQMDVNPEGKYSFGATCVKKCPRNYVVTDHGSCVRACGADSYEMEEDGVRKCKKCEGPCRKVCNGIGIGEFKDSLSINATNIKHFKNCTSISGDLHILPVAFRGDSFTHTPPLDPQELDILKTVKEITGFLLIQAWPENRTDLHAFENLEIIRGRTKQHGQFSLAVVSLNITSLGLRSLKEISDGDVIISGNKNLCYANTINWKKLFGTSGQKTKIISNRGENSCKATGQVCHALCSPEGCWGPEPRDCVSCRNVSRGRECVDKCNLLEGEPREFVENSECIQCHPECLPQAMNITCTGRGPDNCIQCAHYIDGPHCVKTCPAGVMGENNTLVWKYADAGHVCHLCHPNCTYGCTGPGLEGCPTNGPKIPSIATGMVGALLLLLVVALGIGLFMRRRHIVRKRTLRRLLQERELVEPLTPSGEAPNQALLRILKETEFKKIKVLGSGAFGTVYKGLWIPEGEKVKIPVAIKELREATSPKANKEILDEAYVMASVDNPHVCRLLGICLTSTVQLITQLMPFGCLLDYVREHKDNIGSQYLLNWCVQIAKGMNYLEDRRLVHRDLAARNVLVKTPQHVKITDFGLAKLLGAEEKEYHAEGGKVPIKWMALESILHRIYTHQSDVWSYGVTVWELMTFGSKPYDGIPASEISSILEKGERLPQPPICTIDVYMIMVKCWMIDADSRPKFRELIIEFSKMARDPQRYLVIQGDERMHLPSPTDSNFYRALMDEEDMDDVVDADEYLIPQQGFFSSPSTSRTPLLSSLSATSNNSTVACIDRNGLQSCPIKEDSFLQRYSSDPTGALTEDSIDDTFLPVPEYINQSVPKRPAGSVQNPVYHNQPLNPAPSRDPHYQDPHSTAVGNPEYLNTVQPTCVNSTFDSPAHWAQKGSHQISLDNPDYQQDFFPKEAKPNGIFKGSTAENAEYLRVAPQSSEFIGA

| IC50 [µM] | SMILES |
| --- | --- |
| > 100 | COC(=O)CCc1c[nH]c(/C=C2\C(=O)Nc3ccccc32)c1C |
| > 10 | CCOC(=O)CCc1c(C(=O)OCC)[nH]c(/C=C2\C(=O)Nc3ccccc32)c1CC(=O)OCC |
| > 100 | Cc1c[nH]c(/C=C2\C(=O)Nc3ccccc32)c1CC(=O)O |
| > 25 | Cc1c(CCC(=O)O)c[nH]c1/C=C1\C(=O)Nc2ncccc21 |
| 12.5 | O=C(O)CCc1c(/C=C2\C(=O)Nc3ncccc32)[nH]c2c1CCCC2 |
| > 100 | Cc1cc(C)c(/C=C2\C(=O)Nc3ncccc32)[nH]1 |
| > 25 | CCOC(=O)c1c(C)[nH]c(/C=C2\C(=O)Nc3ccc(Br)cc32)c1C |
| > 10 | CCOC(=O)c1c(C)[nH]c(/C=C2\C(=O)Nc3ccc(NC(=O)c4ccc(C(=O)OC)cc4)cc32)c1C |
| > 100 | CC(=O)c1[nH]c(/C=C2\C(=O)Nc3ccccc32)c(C)c1C |
| > 10 | CCOC(=O)c1[nH]c(/C=C2\C(=O)Nc3ccccc32)c(C(C)=O)c1C |
| > 50 | Cc1[nH]c(/C=C2\C(=O)Nc3ncccc32)c(C)c1CCC(=O)O |
| > 50 | COC(=O)Cc1c(Cl)[nH]c(/C=C2\C(=O)Nc3ccccc32)c1C(=O)OC |
| > 50 | COC(=O)CCc1c[nH]c(/C=C2\C(=O)Nc3cc(OC)c(OC)cc32)c1C |
| 29.9 | O=C1Nc2ncccc2/C1=C/c1cc2c([nH]1)CCCC2 |
| 38.2 | Cc1c(/C=C2\C(=O)Nc3ncccc32)[nH]c2c1CCCC2 |
| > 100 | CCc1c(/C=C2\C(=O)Nc3ccccc32)[nH]c(C(=O)O)c1C |
